B1: CD200: CD200 immune checkpoint protein used to pulse splenocytes (protein, UniProt O54901 31-278, looked up)
OX-2 membrane glycoprotein: QVEVVTQDERKALHTTASLRCSLKTSQEPLIVTWQKKKAVSPENMVTYSKTHGVVIQPAYKDRINVTELGLWNSSITFWNTTLEDEGCYMCLFNTFGSQKVSGTACLTLYVQPIVHLHYNYFEDHLNITCSATARPAPAISWKGTGTGIENSTESHFHSNGTTSVTSILRVKDPKTQVGKEVICQVLYLGNVIDYKQSLDKGFWFSVPLLLSIVSLVILLVLISILLYWKRHRNQERGESSQGMQRMK

Assays:
[1] = test system: CD14+ cells; assay: Dendritic cell maturation: phenotyping for CD80, CD86, HLA-DR; assay type: cell-based, human; conditions: peptide alone compared with GM-CSF+IL4, p<0.0001
Description: FIGS. 4A-4D. Targeting CD200 activation receptors enhances dendritic cell maturation. (FIGS. 4A, 4B) CD14 purified cells were pulsed with (FIG. 4A) GM-CSF+IL4 or equal molar ratios of peptides P1A8, P2A0, or P4A10 or (FIG. 4B) GM-CSF+IL4 plus equal molar ratios of peptides P1A8, P2A0, or P4A10 and incubated for 48 h. Cells were harvested and phenotyped for CD80, CD86, and HLA-DR. (FIG. 4C) Immature dendritic cells from donors with or without CMV were pulsed with the CMV antigen pp65+/−equal molar ratios of peptides P1A8, P2A0, or P4A10. Cells were washed, and autologous T-cells were added back and incubated for a further 48 h. Supernatants were analyzed for IFNγ production. (FIG. 4D) Immature dendritic cells were pulsed with the CMV antigen pp65+/−P4A10. After the cells were washed, autologous T-cells were added back and incubated for a further 48 h. Supernatants were analyzed for IFNγ, IL-6, TNFα and RANTES content. Error bars represent standard deviation (n=3 healthy donors/group, *P<0.05, **P<0.005, ***P<0.0005 by t-test). The data represent three separate healthy donors. Black bars represent CMV-negative donors.
Targeting CD200 activation receptors enhances dendritic cell maturation. TNF-regulated cytokines (Table 1) have been implicated in dendritic cell maturation. […] To substantiate this, CD14^+ cells were isolated from healthy human donors and pulsed with GM-CSF+IL4, P1A8, P2A0, or P4A10 27. Cells pulsed with P1A8, P2A0, and P4A10 expressed higher levels of the co-stimulatory molecules CD80, CD86, and HLA-DR than cells treated with GM-CSF+IL4 (p<0.0001; FIG. 4a). Moreover, we observed synergistic upregulation of CD80/86 and HLA-DR when CD14^+ cells were incubated with GM-CSF+IL4 and each of the peptides (p<0.0001) (FIG. 4b).

[2] = test system: T-lymphocytes; assay: P4A10 priming prior to antigen presentation, CD200R1 expression; assay type: cell-based; conditions: not observed in mock-treated cells, FIG. 7d
Excerpt: The efficacy of the P4A10+autologous tumor lysate strategy in this context creates an interesting conundrum. The T-cells that respond to APC presentation following stimulation express the inhibitory CD200R129. The immune-stimulatory effects of these primed T-cells, therefore, are expected to be blunted upon entry into a glioblastoma microenvironment that is replete with soluble and tumor-expressed CD200. […] Such suppression was not observed in mock-treated cells. Similar downregulation of PD-1 was observed on APCs (p=0.005, FIG. 7c).

[3] = test system: CD14+ cells; assay: RNAseq / NanoString gene expression analysis of pulsed CD14+ cells; assay type: cell-based, human; conditions: for mRNA expression of TNF-regulated cytokines: NanoString platform, FIG. 3b; for mRNA expression of cytokines released in response to TNF signaling: RNAseq, CD14+ cells
Excerpt: Nanostring gene expression analysis: Total RNA from CD14^+ cells was sent to New Zealand Genomics Limited (Dunedin, New Zealand) to measure the expression of genes that are differentially expressed during inflammation (nCounter GX, NanoString Technologies, Seattle, WA, USA). Briefly, total RNA was extracted from CD14^+ cells (MagJET RNA kit, Thermo Fisher Scientific, Waltham, MA) using the protocol adapted for tissue (KingFisher Duo machine, Thermo Fisher Scientific, Waltham, MA). RNA samples were then quantified (Qubit® 2.0 fluorometer, Thermo Fisher Scientific) and subjected to RNA integrity analysis (2100 Bioanalyzer, Agilent Technologies, Santa Clara, CA). Probes for the genes encoding CD44 (NM_001001392.1); NANOG (NM_024865.2); OCT4 (NM_002701.4); STAT3 (NM_139276.2); and the housekeeping genes glucuronidase beta (NM_000181.1), clathrin heavy chain (NM 4859.2), and hypoxanthine phosphoribosyltransferase 1 (NM_000194.1) were designed and manufactured by NanoString Technologies.
Expression data obtained with NanoString GX were analyzed by using nSolver Analysis Software 3.0 (nanostring.com/products/nSolver) with default settings, and normalized to housekeeping genes. nSolver was used to perform cluster analysis and to generate heat maps by using Java Treeview Version 1.1.6r4. Pathway analysis was performed by using the PathCards Pathway Unification Database (pathcards.genecards.org). Student's t-tests were used to determine significant differences (p<0.05).

[4] = test system: Human CD14+ cells; assay: Cytokine measurements in CD14+ cells pulsed with CD200AR-L peptide; assay type: cell-based; conditions: for secretion of inflammatory cytokines from CD14+ cells: selection among 61 alanine-substituted peptides; for IL-1β in supernatant / TNFα in supernatant: CD14+ cells pulsed with peptide, 48 h, compared with non-pulsed controls
Description: Cytokine measurements. Human CD14^+ cells (5×10^5) were isolated from peripheral blood mononuclear cells (PBMCs) using anti-CD14 beads (BD Biosciences, San Jose, CA), typically yielding ≥70% recovery and ≥90% purity. Cells were pulsed with 2 μM CD200AR-L peptide and incubated for 48 h, after which the supernatants were analyzed by bead array for cytokine production (BD Biosciences, San Jose, CA).

[5] = test system: immature dendritic cells (iDCs) and autologous T-cells; assay: CMV assay: iDCs pulsed with pp65 +/- peptide, then co-incubated with T-cells; assay type: cell-based, human; conditions: for antigen-specific response, production of IFNγ: pp65+CD200AR-L peptide compared with pp65 alone
Description: Dendritic cell differentiation. Cytomegalovirus (CMV)-positive HLA-A2^+ lymphocyte packs were obtained from the American Red Cross, and CD14^+ cells were purified. Approximately 1×10^8 CD14^+ cells were cultured in polystyrene tissue-culture flasks at 37° C. in 5% CO2. GM-CSF (25 ng/mL) and IL-4 (40 ng/mL) were both added on days 3 and 5 to derive immature dendritic cells (iDCs).
CMV assay. iDCs (5×10^5) were pulsed with 10 μg of CMV antigen peptide pp65495-503 (NLVPMVATV) and cultured as described above. The iDCs were then washed three times, and 5×10^5 CD8^+ T-cells from CMV-positive donors were co-incubated with the pulsed iDCs. CMV-negative PBMCs were used as a negative control. Supernatants were collected after 48 h of incubation and analyzed for IFNγ production by cytometric bead array (BD Biosciences).
To assess the effects of P1A8, P2A0, and P4A10 on the antigen-specific response, we measured IFNγ release in the following assay. iDCs were pulsed with the CMV antigen pp65 with and without an equimolar amount of P1A8, P2A0, or P4A10. Autologous T-cells were then added and incubated with the iDCs for 48 h, after which IFNγ production was measured in the supernatants. Exposure to pp65 increased T-cell IFNγ production approximately 4-fold (FIG. 4c). Co-treatment of iDCs with pp65 and P1A8, P2A0, or P4A10 increased IFNγ release by an additional 2- to 3-fold over pp65 alone.

[6] = test system: Splenocytes; assay: Splenocytes pulsed with CD200 or PD-L1 +/- mCD200AR-L, flow cytometry for CTLA4 and PD-L1; assay type: cell-based; conditions: splenocytes pulsed with CD200 or PD-L1
Description: FIGS. 14A-14C. […] Splenocytes were pulsed with CD200, PD-L1+/−mCD200AR-L. Cells were analyzed by flow cytometry for the (FIG. 14A) CD4^+CTLA4^+, (FIG. 14B) CD8^+CTLA4^+or (FIG. 14C) CD11b^+PD-L1^+ populations. Error bars are representative of n=2 *P<0.005, **P<0.0001.
We propose that soluble CD200 and PD-L1 inhibit T cell activation through multiple checkpoints (FIG. 10). Therefore, the effect of multiple suppressive molecules (CD200 and PD-L1) on T cell inhibition was investigated. […] In addition, following PD-L1 treatment, an upregulation of PD-L1 on CD11b and an upregulation of CTLA4 was observed on T cells. Being CTLA4 and PD-L1 propagate separate inhibitory signals, it was hypothesized that PD-L1 inhibits T cell activation through 1) direct CD200 and PD-L1 on T cells and 2) direct PD-L1 (on APCs)/PD-I (on […]) producing cytokines upregulating CTLA4, which would explain the enhanced responses seen in combination α-PD-1 and α-CTLA4 treatments. However, neither of them inhibit CD200 effect on T cells.
We next looked at the effects of CD200AR-L on T cell inhibition. […] Being CTLA4 and PD-L1 propagate separate inhibitory signals, we hypothesize that PD-L1 inhibits T cell activation through two separate mechanisms, 1) through direct PD-L1 (on APCs)/PD-I (on T cells) interactions and through cytokine production following PD-L1 binding to the PD-1 on CD11b cell, which would explain the enhanced responses seen in combination α-PD-1 and α-CTLA4 treatments.

Molecule	secretion of inflammatory cytokines from CD14+ cells [4]	antigen-specific response, production of IFNγ [5]	IL-1β in supernatant [4]	TNFα in supernatant [4]	other results
CLFNTFGFGAISGTA (Ac-CLFNTFGFGAISGTA-NH2; listed as Homo sapiens) [P4A10]	maximally stimulated	–	–	–	levels of co-stimulatory molecules CD80, CD86, and HLA-DR [1]: higher levels; CD200R1 expression [2]: suppressed; mRNA expression of TNF-regulated cytokines [3]: most potently and consistently induced; mRNA expression of cytokines released in response to TNF signaling [3]: notable increase
CLFNTFGFGKISGTA (Ac-CLFNTFGFGKISGTA-NH2; listed as Homo sapiens) [P4]	–	significant antigen-specific response	statistically significant increases	statistically significant increases	–
IVTWQKKKAVSPENM (Ac-IVTWQKKKAVSPENM-NH2; listed as Homo sapiens) [P1]	–	significant antigen-specific response	statistically significant increases	statistically significant increases	–
NITLADEGCYMCLFN (Ac-NITLADEGCYMCLFN-NH2; cysteine pairing not given here; listed as Homo sapiens) [P2A5]	maximally stimulated	–	–	–	–
NITLEDEGCYMCLFN (Ac-NITLEDEGCYMCLFN-NH2; cysteine pairing not given here; listed as Homo sapiens) [P2A0]	maximally stimulated	–	–	–	levels of co-stimulatory molecules CD80, CD86, and HLA-DR [1]: higher levels; mRNA expression of TNF-regulated cytokines [3]: most potently and consistently induced; mRNA expression of cytokines released in response to TNF signaling [3]: notable increase
NITLEDEGCYMCLFN (Ac-NITLEDEGCYMCLFN-NH2; cysteine pairing not given here; listed as Homo sapiens) [P2]	–	significant antigen-specific response	statistically significant increases	statistically significant increases	–
NLVPMVATV [pp65, CMV antigen peptide pp65495-503, reference compound]	–	–	–	–	increase of T-cell IFNγ production ([5]; exposure to pp65 alone, FIG. 4c): approximately 4 fold
VTFSENHGVVIAPAY (Ac-VTFSENHGVVIAPAY-NH2; listed as Homo sapiens) [P3A12]	maximally stimulated	–	–	–	–
VTFSENHGVVIQPAY (Ac-VTFSENHGVVIQPAY-NH2; listed as Homo sapiens) [P3]	–	significant antigen-specific response	statistically significant increases	statistically significant increases	–
B1	–	–	–	–	CTLA4 on CD4 cells [6]: upregulation; CTLA4 on CD8 cells [6]: not on CD8 cells

From patent US12414983B2, “CD200AR ligands for cancer immunotherapy” (REGENTS OF THE UNIVERSITY OF MINNESOTA, priority 2019, dated 2025)
